US20040248919A1, “Fluorinated trienes and their use as rxr modulators” (priority 2001, published 2004)

Assays:
[1] = Metabolic stability in mouse liver microsomes; type: in vitro ADME; conditions: 20 min incubation, 37° C., NADPH
Experimental: A solution containing 1130 μL of 100 mM sodium phosphate buffer, pH 7.4, 20 μL of a 25 mg/mL CD-1 mouse liver microsomal suspension in 100 mM sodium phosphate buffer, pH 7.4, and 830 μL of a 4 mg/mL NADPH solution in 100 mM sodium phosphate buffer, pH 7.4, was prepared in a glass test tube, mixed on a vortexer, and incubated in a shaking water bath at 37° C. for 3 min. A test compound was dissolved in 10% DMSO/90% methanol to a final concentration of 400 μM, and 20 μL was added to the above solution after the 3 min. incubation. The solution was mixed on a vortexer, and incubated at 37° C. in the shaking water bath. After 0, 5, 10 and 20 min incubation, 75 μL aliquots of the incubation solution were removed in triplicate and each aliquot was added to a 75 μL solution that contained 2 μM of an internal standard in 50% acetonitrile/50% 20 mM ZnSO4 and 20 mM NaOH in water. Samples were mixed on a vortexer, and centrifuged at 10° C. for 25 min at 3000 rpm. The supernatant was separated from the microsomal pellet and analyzed for the test compound by electrospray negative ionization using a Micromass Platform LCZ mass spectrometer equipped with a Shimadzu 10AD VP pump, and Shimadzu 10AD UP autosampler. […] Peak area ratios of the test compound to internal standard at each time point were compared to the 0 min. time point to assess metabolic stability. […]

[2] = target: T1, RXRα (Homo sapiens, UniProt P19793); assay: RXR binding, competition with tritiated retinoid; conditions: read-out: RXR Binding alpha
T1 sequence (P19793 1-462): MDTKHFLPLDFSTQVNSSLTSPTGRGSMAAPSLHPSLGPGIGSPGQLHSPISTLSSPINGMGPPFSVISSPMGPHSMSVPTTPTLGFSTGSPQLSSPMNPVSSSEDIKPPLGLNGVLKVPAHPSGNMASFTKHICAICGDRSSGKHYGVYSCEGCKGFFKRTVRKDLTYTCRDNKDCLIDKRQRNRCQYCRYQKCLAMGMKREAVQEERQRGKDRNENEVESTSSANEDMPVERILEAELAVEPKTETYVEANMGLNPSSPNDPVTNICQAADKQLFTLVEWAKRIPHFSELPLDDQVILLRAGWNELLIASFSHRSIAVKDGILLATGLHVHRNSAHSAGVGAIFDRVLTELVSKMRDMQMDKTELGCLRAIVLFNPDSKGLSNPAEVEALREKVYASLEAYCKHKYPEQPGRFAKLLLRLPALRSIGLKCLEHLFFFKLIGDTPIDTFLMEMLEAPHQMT
Text: (§1) In addition to the cotransfection data, the binding of selected compounds of the present invention to the RAR and RXR receptors was also investigated according to the methodology described in M. F., Boehm, et al., “Synthesis and Structure-Activity Relation-ships of Novel Retinoid X Receptor Selective Retinoids”, 37 J. Med. Chem., 2930 (1994); M. F. Boehm, et al., “Synthesis of High Specific Activity [^3H]-9-cis Retinoic Acid and Its Application for Identifying Retinoids with Unusual Binding Properties”, 37 J. Med. Chem., 408 (1994), and E. A. Allegretto, et al., “Characterization and Comparison of Hormone-Binding and Transactivation Properties of Retinoic Acid and Retinoid X Receptors Expressed in Mammalian Cells and Yeast”, 268 J. Biol. Chem., 22625 (1993), the disclosures of which are herein incorporated by reference.
(§2) Non-specific binding was defined as that binding remaining in the presence of 500 nM of the appropriate unlabelled compound. At the end of the incubation period, bound ligand was separated from free. The amount of bound tritiated retinoid was determined by liquid scintillation counting of an aliquot (700 μL) of the supernatant fluid or the hydroxylapatite pellet.
(§3) After correcting for non-specific binding, IC50 values were determined. The IC50 value is defined as the concentration of competing ligand needed to reduce specific binding by 50%. The IC50 value was determined graphically from a log-logit plot of the data. The Ki values were determined by application of the Cheng-Prussof equation to the IC50 values, the labeled ligand concentration and the Kd of the labeled ligand.

[3] = target: T2, RXRβ (UniProt P28704); assay: RXR binding, competition with tritiated retinoid; conditions: read-out: RXR Binding beta
T2 sequence (P28704 1-520): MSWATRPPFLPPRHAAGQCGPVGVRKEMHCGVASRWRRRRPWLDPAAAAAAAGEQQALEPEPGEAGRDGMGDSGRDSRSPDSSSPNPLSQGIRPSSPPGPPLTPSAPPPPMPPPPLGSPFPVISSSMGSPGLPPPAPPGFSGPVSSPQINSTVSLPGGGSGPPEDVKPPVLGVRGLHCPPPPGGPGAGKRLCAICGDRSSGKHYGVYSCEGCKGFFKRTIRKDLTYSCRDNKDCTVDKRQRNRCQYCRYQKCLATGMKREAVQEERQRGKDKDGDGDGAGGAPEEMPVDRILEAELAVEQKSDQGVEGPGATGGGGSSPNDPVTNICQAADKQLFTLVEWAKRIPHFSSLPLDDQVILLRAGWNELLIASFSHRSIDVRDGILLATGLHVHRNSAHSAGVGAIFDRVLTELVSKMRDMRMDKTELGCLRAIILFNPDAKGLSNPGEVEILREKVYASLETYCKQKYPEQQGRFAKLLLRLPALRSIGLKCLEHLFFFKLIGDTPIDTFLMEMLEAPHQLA
Text: as §1, §2, §3

[4] = target: T3, RXRγ (UniProt P28705); assay: RXR binding, competition with tritiated retinoid; conditions: read-out: RXR Binding gamma
T3 sequence (P28705 1-463): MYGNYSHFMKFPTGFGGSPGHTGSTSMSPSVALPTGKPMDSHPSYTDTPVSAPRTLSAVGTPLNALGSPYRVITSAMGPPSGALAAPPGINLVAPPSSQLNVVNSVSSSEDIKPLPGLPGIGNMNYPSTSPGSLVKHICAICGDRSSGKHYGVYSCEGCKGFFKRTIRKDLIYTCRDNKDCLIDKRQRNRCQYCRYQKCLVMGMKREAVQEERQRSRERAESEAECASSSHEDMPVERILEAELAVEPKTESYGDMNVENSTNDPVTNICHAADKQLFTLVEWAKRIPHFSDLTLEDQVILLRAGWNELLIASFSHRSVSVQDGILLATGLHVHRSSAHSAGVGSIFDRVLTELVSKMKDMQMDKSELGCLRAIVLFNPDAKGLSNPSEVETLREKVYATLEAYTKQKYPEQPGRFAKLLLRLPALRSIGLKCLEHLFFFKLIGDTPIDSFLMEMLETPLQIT
Text: as §1, §2, §3

For C/C(=C/C=C(F)/C(C)=C/C(=O)O)c1cc(C(C)(C)C)cc(C(C)(C)C)c1OCC(F)F [Example 1, 7-[3,5-di-tert-butyl-2-(2,2-difluoroethoxy)-phenyl]4-fluoro-3-methyl-octa-2,4,6-trienoic acid], the “Metabolic stability (mouse microsomes): Difference from reference compound at 20 min.” value [1] was 29.295%, the Ki [2] was 4.8 nM and the Ki [3] was 12 nM. The Ki [4] was 21 nM.
With C/C(=C/C(F)=C/C(C)=C/C(=O)O)c1cc(C(C)(C)C)cc(C(C)(C)C)c1OCC(F)F [Example 2, 7-[3,5-Di-tert-butyl-2-(2,2-difluoroethoxy)-phenyl]-5-fluoro-3-methyl-octa-2,4,6-trienoic acid] the “Metabolic stability (mouse microsomes): Difference from reference compound at 20 min.” value [1] was 18.300%, the Ki [2] was 8.2 nM and the Ki [3] was 15 nM. For the same molecule, the Ki [4] was 29 nM.
Molecule CCCCOc1c(\C(C)=C/C=C/C(=C/C(=O)O)C(F)(F)F)cc(C(C)C)cc1C(C)C [Example 3, (2Z,4E,6Z)-7-(2-Butoxy-3,5-diisopropylphenyl)-3-trifluoromethyl-octa-2,4,6-trienoic acid] has a Ki [2] of 1300 nM, a Ki [3] of 203 nM and a Ki [4] of 662 nM.
CCCCOc1c(\C(C)=C/C=C/C(=C\C(=O)O)C(F)(F)F)cc(C(C)C)cc1C(C)C [Example 4, (2E,4E,6Z)-7-(2-Butoxy-3,5-diisopropylphenyl)-3-trifluoromethyl-octa-2,4,6-trienoic acid] showed a Ki [2] of 9110 nM, a Ki [3] of 1080 nM and a Ki [4] of 865 nM.
CCOc1c(\C(=C/C=C/C(C)=C/C(=O)O)C(F)(F)F)cc(C(C)(C)C)cc1C(C)(C)C [Example 5, (2E,4E,6E)-3-methyl-7-(2-ethoxy-3,5-di-tert-butylphenyl)-8,8,8-trifluoroocta-2,4,6-trienoic acid] gave a Ki [2] of 38 nM, a Ki [3] of 52 nM and a Ki [4] of 184 nM.
